Measured values as given in patent publication US20240425523A1, “Compounds for the Degradation of EGFR Kinase” (Beigene Switzerland GMBH, priority 2023, published 2024).
pIC50: −log10 of the molar value.

What was measured:
Assay type in all cases: cell-based
[1] = target: T1, EGFR L858R (BaF3-L858R cells) (Homo sapiens, UniProt P00533, L858R); assay: Cell degradation of EGFR, HTRF assay, BaF3-L858R cells; settings: 16 h treatment; for DC50: EGFR degradation; for Dmax: maximum percentage of degradation
T1 construct: host or cells: BaF3
In short: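 BaF3-L858R cells treated 16 h at 37° C, 5% CO2 with compound (top 10 uM final, 5-fold, 8 doses, 0.1% DMSO). DC50 from four-parameter fit; Dmax is maximum percent degradation.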

[2] = target: p-EGFR Del19/C797S (H1975-clone #23 cells) (Homo sapiens, UniProt P00533); assay: Cell p-EGFR inhibition assay, HTRF, H1975-clone#23 (DEL19/C797S) cells; settings: 16 h treatment; for Imax (%): maximum percentage of pEGFR inhibition; for pIC50: pEGFR inhibition
In short: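 Phospho-EGFR read by overnight HTRF on lysates, normalized to DMSO-treated high control; IC50, Hill slope and Imax fitted. Compounds were applied for 16 h (10 uM top, 5-fold steps, 8 doses) to an H1975 single clone carrying only exogenous Del19/C797S EGFR after sgRNA knockout of endogenous copies.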

[3] = target: T2, EGFR-L858R/C797S (H1975-clone #8 cells) (Homo sapiens, UniProt P00533, C797S/L858R); assay: Cell degradation of EGFR, HTRF assay, H1975-clone#8 (L858R/C797S) cells; settings: 16 h treatment; for DC50: EGFR degradation; for Dmax: maximum percentage of degradation
T2 construct: expressed in transfected cells; host or cells: H1975 (endogenous EGFR knocked out, clone #8)

[4] = target: T3, p-EGFR L858R (BaF3-L858R cells) (Homo sapiens, UniProt P00533, L858R); assay: Cell p-EGFR inhibition assay, HTRF, BaF3-L858R cells; settings: 16 h treatment; for Imax (%): maximum percentage of pEGFR inhibition; for pIC50: pEGFR inhibition
T3 construct: host or cells: BaF3
In short: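 BaF3-L858R cells treated 16 h at 37 °C, 5% CO2 with compound from 10 uM top, 5-fold dilutions, 8 doses, in 0.1% DMSO medium. Lysates read overnight by HTRF p-EGFR antibodies; IC50 fitted to four-parameter curve against DMSO high control.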

DC50 [1] [nM] | Dmax [1] [%] | Imax (%) [2] [%] | pIC50 [2] | DC50 [3] [nM] | Dmax [3] [%] | Imax (%) [4] [%] | pIC50 [4] | SMILES
4.1 | 83.2 | 100.5 | 8.70 | 3.7 | 86.9 | 95 | 8.36 | COC[C@H]1CN(c2ccc3c(c2)N2CC4CC[C@H](COc5c(c(C(F)F)nn5C)-c5cc(cc(C)n5)C(=O)/N=C/2N3)C4)CCN1C1CCN(c2cc(F)c([C@H]3CCC(=O)NC3=O)c(F)c2)CC1 [Example 104, (R)-3-(4-(4-((R)-4-((7^1R,7^3S,E)-1^3-(difluoromethyl)-1^1,2^6-dimethyl-3-oxo-5^2,5^3-dihydro-1^1H,5^1H-9-oxa-4-aza-5(2,1)-benzo[d]imidazola-2(2,4)-pyridina-1(4,5)-pyrazola-7(1,3)-cyclopentanacyclononaphane-5^6-yl)-2-(methoxymethyl)piperazin-1-yl)piperidin-1-yl)-2,6-difluorophenyl)piperidine-2,6-dione]
4.4 | 88.1 | 96.05 | 9.22 | 2.97 | 82.5 | 94.53 | 8.65 | Cc1cc2cc(n1)-c1c(C)nn(C)c1OC[C@H]1CC[C@H](C1)CN1/C(=N/C2=O)Nc2ccc(N3CCN(C4CCN(c5cc(F)c([C@H]6CCC(=O)NC6=O)c(F)c5)CC4)[C@@H](CC#N)C3)cc21 [Example 163, 2-((S)-1-(1-(4-((R)-2,6-dioxopiperidin-3-yl)-3,5-difluorophenyl)piperidin-4-yl)-4-((7^1R,7^3S,E)-1^1,1^3,2^6-trimethyl-3-oxo-5^2,5^3-dihydro-1^1H,5^1H-9-oxa-4-aza-5(2,1)-benzo[d]imidazola-2(2,4)-pyridina-1(4,5)-pyrazola-7(1,3)-cyclopentanacyclononaphane-5^6-yl)piperazin-2-yl)acetonitrile]
2.8 | 84.4 | 100.23 | 8.81 | 2.92 | 87 | 97.42 | 7.95 | Cc1cc2cc(n1)-c1c(C)nn(C)c1OC[C@H]1CC[C@H](C1)CN1/C(=N/C2=O)Nc2ccc(N3CC(N(C)C4CCN(c5cc(F)c([C@H]6CCC(=O)NC6=O)c(F)c5)CC4)C3)cc21 [Example 153, (R)-3-(2,6-difluoro-4-(4-(methyl(1-((7^1R,7^3S,E)-1^1,1^3,2^6-trimethyl-3-oxo-5^2,5^3-dihydro-1^1H,5^1H-9-oxa-4-aza-5(2,1)-benzo[d]imidazola-2(2,4)-pyridina-1(4,5)-pyrazola-7(1,3)-cyclopentanacyclononaphane-5^6-yl)azetidin-3-yl)amino)piperidin-1-yl)phenyl)piperidine-2,6-dione]
3.18 | 85.1 | 99.6 | 9.15 | 2.87 | 69 | 102.5 | 8.15 | Cc1cc2cc(n1)-c1cnn(C)c1OC[C@H]1CC[C@H](C1)CN1/C(=N/C2=O)Nc2ccc(N3CCN(C4CCN(c5ccc(NC6CCC(=O)NC6=O)cc5F)CC4)CC3)cc21 (some centres unmarked) [Example 59, 3-((4-(4-(4-((7^1R,7^3S,E)-1^1,2^6-dimethyl-3-oxo-5^2,5^3-dihydro-1^1H,5^1H-9-oxa-4-aza-5(2,1)-benzo[d]imidazola-2(2,4)-pyridina-1(4,5)-pyrazola-7(1,3)-cyclopentanacyclononaphane-5^6-yl)piperazin-1-yl)piperidin-1-yl)-3-fluorophenyl)amino)piperidine-2,6-dione]
5.38 | 90.8 | 100.7 | 8.55 | 10.6 | 89.6 | 99.14 | 7.84 | Cc1nn(C)c2c1-c1cc(cc(Cl)n1)C(=O)/N=C1\Nc3ccc(N4CCN(C5CCN(c6cc(F)c([C@H]7CCC(=O)NC7=O)c(F)c6)CC5)CC4)cc3N1C[C@@H]1CC[C@H](CO2)C1 [Example 179, (R)-3-(4-(4-(4-((7^1R,7^3S,E)-2^6-chloro-1^1,1^3-dimethyl-3-oxo-5^2,5^3-dihydro-1^1H,5^1H-9-oxa-4-aza-5(2,1)-benzo[d]imidazola-2(2,4)-pyridina-1(4,5)-pyrazola-7(1,3)-cyclopentanacyclononaphane-5^6-yl)piperazin-1-yl)piperidin-1-yl)-2,6-difluorophenyl)piperidine-2,6-dione]
2.64 | 79 | 100.2 | 8.89 | 5.97 | 73.7 | 98.5 | 8.14 | COC[C@@H]1CN(c2ccc3c(c2)N2CC4CC[C@H](COc5c(cnn5C)-c5cc(cc(C)n5)C(=O)/N=C/2N3)C4)CCN1C1CCN(c2ccc(NC3CCC(=O)NC3=O)cc2C)CC1 (stereo partly drawn) [Example 118, 3-((4-(4-((S)-4-((7^1R,7^3S,E)-1^1,2^6-dimethyl-3-oxo-5^2,5^3-dihydro-1^1H,5^1H-9-oxa-4-aza-5(2,1)-benzo[d]imidazola-2(2,4)-pyridina-1(4,5)-pyrazola-7(1,3)-cyclopentanacyclononaphane-5^6-yl)-2-(methoxymethyl)piperazin-1-yl)piperidin-1-yl)-3-methylphenyl)amino)piperidine-2,6-dione]
3.32 | 87.3 | 100.3 | 9.22 | 0.75 | 77 | 95.9 | 8.11 | COC[C@@H]1CN(c2ccc3c(c2)N2CC4CC[C@H](COc5c(cnn5C)-c5cc(cc(C)n5)C(=O)/N=C/2N3)C4)CCN1C1CN(C2CCN(c3cc(F)c([C@H]4CCC(=O)NC4=O)c(F)c3)CC2)C1 [Example 108, (R)-3-(4-(4-(3-((S)-4-((7^1R,7^3S,E)-1^1,2^6-dimethyl-3-oxo-5^2,5^3-dihydro-1^1H,5^1H-9-oxa-4-aza-5(2,1)-benzo[d]imidazola-2(2,4)-pyridina-1(4,5)-pyrazola-7(1,3)-cyclopentanacyclononaphane-5^6-yl)-2-(methoxymethyl)piperazin-1-yl)azetidin-1-yl)piperidin-1-yl)-2,6-difluorophenyl)piperidine-2,6-dione]
8.79 | 74 | 103.49 | 8.47 | 7.24 | 89.7 | 101.23 | 8.04 | Cc1cc2cc(n1)-c1c(C)nn(C)c1OC[C@H]1CC[C@H](C1)CN1/C(=N/C2=O)Nc2ccc(N3C[C@H](C)N(C4CCN(c5cc(F)c([C@H]6CCC(=O)NC6=O)c(F)c5)CC4)C[C@@H]3C)cc21 [Example 197, (R)-3-(4-(4-((2S,5S)-2,5-dimethyl-4-((7^1R,7^3S,E)-1^1,1^3,2^6-trimethyl-3-oxo-5^2,5^3-dihydro-1^1H,5^1H-9-oxa-4-aza-5(2,1)-benzo[d]imidazola-2(2,4)-pyridina-1(4,5)-pyrazola-7(1,3)-cyclopentanacyclononaphane-5^6-yl)piperazin-1-yl)piperidin-1-yl)-2,6-difluorophenyl)piperidine-2,6-dione]
3.37 | 77.1 | 100.4 | 9.15 | 2.14 | 81.6 | 95.3 | 7.79 | Cc1cc2cc(n1)-c1cnn(C)c1OC[C@H]1CCC(C1)CN1/C(=N/C2=O)Nc2ccc(N3CCN(C4CCN(c5ccc(NC6CCC(=O)NC6=O)cc5C)CC4)CC3)cc21 (some centres unmarked) [Example 123, 3-((4-(4-(4-((7^1R,7^3S,E)-1^1,2^6-dimethyl-3-oxo-5^2,5^3-dihydro-1^1H,5^1H-9-oxa-4-aza-5(2,1)-benzo[d]imidazola-2(2,4)-pyridina-1(4,5)-pyrazola-7(1,3)-cyclopentanacyclononaphane-5^6-yl)piperazin-1-yl)piperidin-1-yl)-3-methylphenyl)amino)piperidine-2,6-dione]
1.37 | 77.1 | 101.9 | 8.66 | 2.61 | 67.4 | 98.6 | 7.69 | Cc1cc2cc(n1)-c1cnn(C)c1OC[C@H]1CCC(C1)CN1/C(=N/C2=O)Nc2ccc(N3CC4(CCN(C5CCN(c6cc(F)c([C@H]7CCC(=O)NC7=O)c(F)c6)CC5)CC4)C3)cc21 [Example 125, (R)-3-(4-(4-(2-((7^1R,7^3S,E)-1^1,2^6-dimethyl-3-oxo-5^2,5^3-dihydro-1^1H,5^1H-9-oxa-4-aza-5(2,1)-benzo[d]imidazola-2(2,4)-pyridina-1(4,5)-pyrazola-7(1,3)-cyclopentanacyclononaphane-5^6-yl)-2,7-diazaspiro[3.5]nonan-7-yl)piperidin-1-yl)-2,6-difluorophenyl)piperidine-2,6-dione]
